Measured values reported in US10626118B2, “Pyrrolopyrimidine crystal for preparing JAK inhibitor” (Chia Tai Tianqing Pharmaceutical Group Co., Ltd., priority 2016, dated 2020).
Like-named read-outs stand apart in the source and are kept apart here.

How the values were obtained:
[1] = Stability test, open clean container at 60° C.; format: physicochemical
Procedure: The crystal A obtained in Method 1 of Example 2 and the crystal B obtained in Example 3 were placed in an open clean container at 60° C., and sampled for detection on days 5 and 10, respectively.

[2] = rats, 30 mg/kg PO; FDA pharmacology review; cited from earlier work
[3] = dogs, Male, FDA pharmacology review, cited from earlier work

Compound | Content (%) ([1]; Day 0) | Total Impurity (%) ([1]; Day 0) | Content (%) ([1]; Day 5) | Total Impurity (%) ([1]; Day 5) | Content (%) ([1]; Day 10) | Total Impurity (%) ([1]; Day 10) | AUCINFobs [2] [ng·h/mL] | AUCINF_obs ([3]; IV 5 mg/kg) [ng·h/mL] | AUCINF_obs ([3]; PO 10 mg/kg) [ng·h/mL]
N#CC[C@H](C1CCCC1)n1cc(-c2ncnc3[nH]ccc23)c(N)n1 [Crystal A of compound represented by formula I] [(3R)-3-[3-amino-4-(7H-pyrrolo[2,3-d]pyrimidin-4-yl)-1H-pyrazol-1-yl]-3-cyclopentyl-propionitrile] | 99.72 | 0.28 | 99.71 | 0.29 | 99.73 | 0.27 | – | – | –
N#CC[C@H](C1CCCC1)n1cc(-c2ncnc3[nH]ccc23)c(N)n1 [Crystal B of compound represented by formula I] [(3R)-3-[3-amino-4-(7H-pyrrolo[2,3-d]pyrimidin-4-yl)-1H-pyrazol-1-yl]-3-cyclopentyl-propionitrile] | 99.23 | 0.77 | 99.23 | 0.77 | 99.22 | 0.78 | – | – | –
N#CC[C@H](C1CCCC1)n1cc(-c2ncnc3[nH]ccc23)cn1 [Ruxolitinib] | – | – | – | – | – | – | 1345 | 13776 | 15716
